Reference: patent US20120196824A1, “THERAPEUTIC AGENT FOR CEREBRAL INFARCTION” (MITSUBISHI TANABE PHARMA CORPORATION, priority 2009, published 2012)
Where a name gives a salt, the structure may show the parent alone.

Target: T1, Human-recombinant-S-Adenosyl-L-Homocysteine Hydrolase (Homo sapiens, UniProt P23526)
T1 construct: purchased Diazyme Laboratories
Experiment: Measurement of enzyme inhibitory activity (hydrolysis of S-Adenosyl-L-Homocysteine, HPLC)
Type: biochemical
Conditions: S-Adenosyl-L-Homocysteine 10 μM, pH 7.2, 37° C., 15 min
Protocol: The enzyme inhibitory activity of the compounds of the Examples was measured using the hydrolysis activity of S-Adenosyl-L-Homocysteine as an index. The measurement method was modification of the method of Henry H. Richards et al. (J. Biol. Chem. 253, 4476-4480, 1978). That is, S-Adenosyl-L-Homocysteine (10 μM) and Adenosine Deaminase (Roche) (4 units) were added to 50 mM phosphate buffer (pH 7.2, containing 1 mM EDTA) with the total amount being 200 μl, and to the solution were added a test substance and then Human-recombinant-S-Adenosyl-L-Homocysteine Hydrolase (50 ng, Diazyme Laboratories) to start the reaction, and the mixture was incubated at 37° C. for 15 min. The reaction was quenched by the addition of 1N aqueous perchloric solution (20 μl), and the mixture was centrifuged under the conditions of 10000 rpm, 5 min, 4° C. The supernatant was collected, and the amount of S-Adenosyl-L-Homocysteine after the reaction was quantified by HPLC. The column used was a reversed-phase column. The detailed conditions of HPLC were as follows.
column used: Wakopak^R HandyODS 150*4.6 mm (Wako Pure Chemical Industries, Ltd.) elution condition: 1.0 ml/min elution solvent: 0.1M acetate buffer (pH 4.0) containing 10 mM 1-heptanesulfonic acid containing 4% acetonitrile wavelength: 258 nm (UV) The inhibitory rate was determined with the amount of decrease in S-Adenosyl-L-Homocysteine before and after the reaction without using the test substance as 100%.
Inhibitory rate (%)={(amount of decrease of S-Adenosyl-L-Homocysteine in the presence of test substance)/(amount of decrease of S-Adenosyl-L-Homocysteine in the absence of test substance)}×100

T1 sequence (P23526 whole entry): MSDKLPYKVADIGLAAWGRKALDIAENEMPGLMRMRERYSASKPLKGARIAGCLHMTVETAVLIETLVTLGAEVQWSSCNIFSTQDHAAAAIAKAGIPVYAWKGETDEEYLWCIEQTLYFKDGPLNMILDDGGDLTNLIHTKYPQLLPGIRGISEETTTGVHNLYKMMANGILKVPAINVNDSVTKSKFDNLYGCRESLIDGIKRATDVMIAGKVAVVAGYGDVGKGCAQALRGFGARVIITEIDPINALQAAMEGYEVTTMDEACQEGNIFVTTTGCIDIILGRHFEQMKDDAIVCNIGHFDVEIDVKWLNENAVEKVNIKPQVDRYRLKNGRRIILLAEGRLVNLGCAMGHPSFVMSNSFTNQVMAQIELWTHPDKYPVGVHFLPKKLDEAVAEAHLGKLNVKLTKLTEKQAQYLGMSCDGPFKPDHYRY

SMILES | IC50 [nM]
Cc1nc(-c2ccc(C)c(N(CC(=O)NCCNC(C)C)CC(=O)N(C)N3Cc4ccccc4C3)c2)no1 [Example 15, N^2-{2-[1,3-dihydro-2H-isoindol-2-yl(methyl)amino]-2-oxoethyl}-N^2-[2-methyl-5-(5-methyl-1,2,4-oxadiazol-3-yl)phenyl]-N^1-[2-(isopropylamino)ethyl]glycinamide] | 17
CC(=O)c1ccc(C)c(N(CC(=O)NCCNC(C)C)CC(=O)N(C)N2Cc3ccccc3C2)c1 [Example 56, N^2-(5-acetyl-2-methylphenyl)-N^2-{2-[1,3-dihydro-2H-isoindol-2-yl(methyl)amino]-2-oxoethyl}-N^1-[2-(isopropylamino)ethyl]glycinamide] | 52
CCNCCNC(=O)CN(CC(=O)N(C)N1Cc2ccccc2C1)c1cc(-c2nc(C)no2)ccc1C [Example 85, N^2-{2-[1,3-dihydro-2H-isoindol-2-yl(methyl)amino]-2-oxoethyl}-N^2-[2-methyl-5-(3-methyl-1,2,4-oxadiazol-5-yl)phenyl]-N^1-[2-(ethylamino)ethyl]glycinamide] | 17
CCNCCNC(=O)CN(CC(=O)N(C)N1Cc2ccccc2C1)c1cc2c(C)noc2cc1C [Example 181, N^2-{2-[1,3-dihydro-2H-isoindol-2-yl(methyl)amino]-2-oxoethyl}-N^2-(3,6-dimethyl-1,2-benzisoxazol-5-yl)-N^1-[2-(ethylamino)ethyl]glycinamide] | 16
CCNCCNC(=O)CN(CC(=O)N(C)N1Cc2ccc(F)cc2C1)c1ccc(C(C)=O)cc1C [Example 211, N^2-(4-acetyl-2-methylphenyl)-N^2-{2-[(5-fluoro-1,3-dihydro-2H-isoindol-2-yl)(methyl)amino]-2-oxoethyl}-N^1-[2-(ethylamino)ethyl]glycinamide] | 51
CCNCCNC(=O)CN(CC(=O)N(C)N1Cc2ccc(F)cc2C1)c1cc2c(cc1C)c(CC)nn2CC(F)F [Example 279, N^2-[1-(2,2-difluoroethyl)-3-ethyl-5-methyl-1H-indazol-6-yl]-N^2-{2-[(5-fluoro-1,3-dihydro-2H-isoindol-2-yl)(methyl)amino]-2-oxoethyl}-N^1-[2-(ethylamino)ethyl]glycinamide hydrochloride] | 66
Cc1cc2c(cc1N(CC(=O)NCCNC(C)C)CC(=O)N(C)N1Cc3ccccc3C1)oc(=O)n2C [Example 192, N^2-{2-[1,3-dihydro-2H-isoindol-2-yl(methyl)amino]-2-oxoethyl}-N^2-(3,5-dimethyl-1,3-benzoxazol-2(3H)-on-6-yl)-N^1-[2-(isopropylamino)ethyl]glycinamide] | 46
CCNCCNC(=O)CN(CC(=O)N(C)N1Cc2ccccc2C1)c1cc(-c2noc(C)n2)ccc1C [Example 16, N^2-{2-[1,3-dihydro-2H-isoindol-2-yl(methyl)amino]-2-oxoethyl}-N^2-[2-methyl-5-(5-methyl-1,2,4-oxadiazol-3-yl)phenyl]-N^1-[2-(ethylamino)ethyl]glycinamide] | 19
CCNCCNC(=O)CN(CC(=O)N(C)N1Cc2ccccc2C1)c1ccc(N2CCCC2=O)cc1C [Example 298, N^2-{2-[1,3-dihydro-2H-isoindol-2-yl(methyl)amino]-2-oxoethyl}-N^2-[2-methyl-4-(2-oxopyrrolidin-1-yl)phenyl]-N^1-[2-(ethylamino)ethyl]glycinamide dihydrochloride] | 50
CCNCCNC(=O)CN(CC(=O)N(C)N1Cc2ccccc2C1)c1cc2cn(CC)nc2cc1C [Example 247, N^2-{2-[1,3-dihydro-2H-isoindol-2-yl(methyl)amino]-2-oxoethyl}-N^2-(2-ethyl-6-methyl-2H-indazol-5-yl)-N^1-[2-(ethylamino)ethyl]glycinamide hydrochloride] | 15
CCNCCNC(=O)CN(CC(=O)N(C)N1Cc2ccc(F)cc2C1)c1ccc(-c2noc(C)n2)cc1C [Example 204, N^2-{2-[(5-fluoro-1,3-dihydro-2H-isoindol-2-yl)(methyl)amino]-2-oxoethyl}-N^2-[2-methyl-4-(5-methyl-1,2,4-oxadiazol-3-yl)phenyl]-N^1-[2-(ethylamino)ethyl]glycinamide] | 65
